“Also recorded” adds a separate entry of the source.
Key:
[1] = Thermodynamic solubility in PBS; assay type: physicochemical; settings: PBS (pH 7.4), 37 °C, 24 h, hydrochloride salts
[2] = Chemical stability and photoisomerization by proton NMR in D2O; assay type: physicochemical; settings: hydrochloride salts, more than 1 year at room temperature protected from sunlight, 1H NMR in D2O
Description: Possible chemical instability and photoisomerization of E/Z isomers were also addressed as these are known liabilities of stilbene derivatives.[23] Proton NMRs of 69 (cis derivative), 84 (trans derivative), and 100 (ethyl analogue) in the form of hydrochloride salts were recorded in D2O (Figures S1–S3). […] The samples dissolved in the NMR tubes were then left on the benchtop exposed to natural daylight for 7 days, which could induce photoisomerization. […] Altogether, these studies imply reasonable stability of the compounds.
Figure S2. […] Compound 84 (trans isomer, […]
hydrochloride salt) was dissolved in D2O and the spectra were recorded at time 0 h, 1 h, 24 h and 7 days. Sample was exposed to day light in between the measurement, which could induce photoisomerization and potentially also chemical degradation.
The sample was previously stored at […]

[3] = tested on: MAO-A/B; test: In vitro MAO inhibition in mouse brain homogenate, p-tyramine substrate; assay type: biochemical
[4] = In vitro permeability, rat intestine in diffusion chambers; assay type: in vitro ADME
[5] = molecular target: T1, 5-HT1A receptor (Rattus norvegicus, UniProt P19327); test: [3H]-8-OH-DPAT radioligand binding assay, rat cortex membranes; settings: for Ki: [3H]-8-OH-DPAT binding, means ±SEM; for inhibition at 300 µM: read-out: Inhibition at 300 µM
T1 construct: from tissue; host or cells: rat (male Wistar) brain cortex membranes
T1 sequence (P19327 1-422): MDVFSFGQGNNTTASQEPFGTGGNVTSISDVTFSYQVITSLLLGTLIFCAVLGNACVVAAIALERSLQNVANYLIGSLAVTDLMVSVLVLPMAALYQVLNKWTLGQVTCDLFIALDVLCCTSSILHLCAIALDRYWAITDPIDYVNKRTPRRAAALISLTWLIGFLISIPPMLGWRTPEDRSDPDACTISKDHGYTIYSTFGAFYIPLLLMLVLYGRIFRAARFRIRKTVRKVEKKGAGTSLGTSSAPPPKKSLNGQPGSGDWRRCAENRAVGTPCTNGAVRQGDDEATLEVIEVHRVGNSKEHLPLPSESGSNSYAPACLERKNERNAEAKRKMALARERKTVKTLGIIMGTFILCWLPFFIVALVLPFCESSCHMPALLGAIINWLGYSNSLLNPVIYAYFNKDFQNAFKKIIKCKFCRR

[6] = tested on: Swiss mice; test: Tail suspension test; assay type: in vivo, mouse; settings: for immobility time, acute treatment: ip 30 min before, 6, 67 at 3 and 10 mg/kg, 69 at 1, 3, 10, 30 mg/kg, imipramine 30 mg/kg
Description: The antidepressant-like activity was screened with the widely used tail suspension test. At 30 min before the behavioral assays, the mice were treated with 6, 67, and 69 at 3 mg/kg and 10 mg/kg ip, with 69 also at 1 mg/kg and 30 mg/kg ip, or were injected with 0.9% saline as control. Imipramine (30 mg/kg ip) was used as the reference drug.
(A) Effects of acute ip treatment with 6 (3, 10 mg/kg, n = 13, 9), 67 (3, 10 mg/kg, n = 6, 10), and 69 (1, 3, 10, 30 mg/kg, n = 8, 7, 8, 6) and imipramine (30 mg/kg, n = 8) in the tail suspension test. […] (B) Effects of acute ip treatment with 6 (3, 10 mg/kg, n = 8, 8), 67 (1, 3, 6 mg/kg; n = 5, 5, 5), and 69 (1, 3, 6 mg/kg, n = 10, 5, 5) on locomotor activity of the mice. […] (C) Effects of 10-day chronic ip treatment with 69 (0.3 mg/kg, daily; n = 10) in the tail suspension test. Data are mean values ± SEM of the immobility time, compared to control mice (n = 8): ∗∗, p < 0.01 (unpaired t-test). […]
quality control sample every seven test samples. The absolute matrix effect was checked by comparing the analyte responses in the standard solutions to the samples spiked in the tissue incubation medium from the control experiment without the analyte, and a deviation of less than ±20% was deemed acceptable.
4.2.10In vitro radioligand binding assay
Rats were humanely killed by decapitation and their brains were removed, washed and rapidly dissected on ice. Homogenisation was performed using a homogeniser (PRO Scientific Inc) at 30,000 rpm for 1 min. For 5-HT1A binding assays, the cortex tissues were homogenised in 30 volumes/weight ice-cold 50 mM Tris–HCl buffer (pH 7.4), and the homogenate was centrifuged at 40,000× g for 15 min at 0 °C to 4 °C. The resulting pellets were resuspended in 30 volumes/weight of the same buffer, and incubated at 37 °C for 20 min. The centrifugation step was repeated twice under the same conditions as described above, and the final pellets were resuspended in 30 volumes/weight 50 mM Tris–HCl buffer (pH 7.4), and stored at –80 […]
For the [3H]-8-OH-DPAT binding assay (the 5-HT1A receptor binding assay), the membranes were thawed and resuspended in 50 mM Tris–HCl (pH 7.4) with 1 mM MnCl2, to a final protein concentration of 0.5 mg/mL. The incubation was carried out at 25 °C for 1 h in a final volume of 1 mL membrane suspension in the presence of the sample assayed and with 0.2 nM [3H]-8-OH-DPAT (170.2 Ci/mmol). Serotonin was used as the positive control. Non-specific binding was determined in parallel incubations in the presence of serotonin (10 μM).
4.2.11 Tail suspension test
The tail suspension test was carried out according to the methodology proposed by Steru and co-workers.22 The mice were individually suspended by the tail from a metal hook (distance

[7] = tested on: Swiss mice; test: Elevated plus maze test; assay type: in vivo, mouse
[8] = tested on: Swiss mice; test: Locomotor activity test; assay type: in vivo, mouse
[9] = tested on: Swiss mice; test: Body mass and survival during 10-day treatment; assay type: in vivo; settings: 0.3 mg/kg ip daily
Description: Figure S9. In vivo effects of chronic treatment on body mass. Body mass variation (Percent weight) (mean ±SEM) in mice throughout the 10-day i.p. treatment with 69 (0.3 mg/kg; n = 10), 100 (0.3 mg/kg; n = 8) and saline (SAL; n = 16). Data are means ±SEM. All animals survived the treatments.

[10] = tested on: SH-SY5Y cells; test: MTS cytotoxicity assay; settings: 24 h, 5 μM and 10 μM
[11] = tested on: Swiss mice; test: Haloperidol-induced catalepsy test; assay type: in vivo, mouse; settings: 5 mg/kg, reference drug
[12] = molecular target: T2, hMAO-A (Homo sapiens, UniProt P21397); test: hMAO-A inhibition, HRP–Amplex Red coupled fluorimetric assay; assay type: biochemical; settings: supplement csv; RA at 100 micromolar
T2 construct: purchased Sigma Aldrich; host or cells: baculovirus-infected insect cells (BTI-TN-5B1-4)
T2 sequence (P21397 1-527): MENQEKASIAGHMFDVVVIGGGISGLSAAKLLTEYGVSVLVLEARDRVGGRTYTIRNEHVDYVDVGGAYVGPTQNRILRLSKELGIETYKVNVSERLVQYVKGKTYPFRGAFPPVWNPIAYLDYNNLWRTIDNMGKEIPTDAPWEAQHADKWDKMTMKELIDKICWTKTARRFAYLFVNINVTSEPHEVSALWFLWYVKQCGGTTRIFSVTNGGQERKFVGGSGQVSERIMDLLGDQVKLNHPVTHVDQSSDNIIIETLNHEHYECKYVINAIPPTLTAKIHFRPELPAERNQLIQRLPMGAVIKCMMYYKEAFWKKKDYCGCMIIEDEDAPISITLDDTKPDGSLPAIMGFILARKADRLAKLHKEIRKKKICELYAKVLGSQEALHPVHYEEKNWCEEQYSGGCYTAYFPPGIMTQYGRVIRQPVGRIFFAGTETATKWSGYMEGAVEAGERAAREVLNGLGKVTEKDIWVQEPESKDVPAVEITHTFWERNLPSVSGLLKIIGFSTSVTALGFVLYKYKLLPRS

SMILES	thermodynamic solubility [1]	Ki [5]	inhibition at 300 µM [5]	chemical stability on storage [2]	immobility time, acute treatment [6]	Open arm entries (%) ([7]; acute ip, 3 mg/kg)	Time in centre (%) ([7]; acute ip, 3 mg/kg)	Time in open arms (%) ([7]; acute ip, 3 mg/kg)	Total arm entries ([7]; acute ip, 3 mg/kg)	Open arm entries (%) ([7]; acute ip, 6 mg/kg)	Time in centre (%) ([7]; acute ip, 6 mg/kg)	Time in open arms (%) ([7]; acute ip, 6 mg/kg)	Total arm entries ([7]; acute ip, 6 mg/kg)	cytotoxic effects [10]	further results
C#CCN1CCC(/C=C\c2cccc(F)c2)CC1 [Compound 69, (Z)-4-(3-Fluorostyryl)-1-(prop-2-yn-1-yl)piperidine]	≥ 8.6 g/250 mL	1700 ± 120 nM	92%	no signs of chemical instability	did not decrease the immobility time	28.0 ±2.9%	38.0 ±2.9%	19.8 ±1.6%	22.9 ±1.6	13.3 ±1.2%	41.4 ±4.1%	7.1 ±1.6%	20.4 ±1.3	no significant cytotoxic effects	residual activity, p-tyramine (0.5 mM), in vitro ([3]; 50 μM compound, homogenate from nontreated mice): 31.3 ± 0.2%; Papp A→B at 50 µM ([4]; male, Sprague-Dawley, pH 7.4, rat intestine, 50 μM donor, mean ± SEM, read-out: apparent permeability coefficient, absorptive direction): 10.8 ± 1.3 ×10⁻⁶ cm/s; Papp B→A at 50 µM ([4]; male, Sprague-Dawley, pH 7.4, rat intestine, 50 μM donor, mean ± SEM, read-out: apparent permeability coefficient, eliminatory direction): 35.4 ± 9.9 ×10⁻⁶ cm/s; permeability classification ([4]; rat intestine in vitro): intermediate/moderate permeability; immobility time, chronic treatment ([6]; 10-day, 0.3 mg/kg ip daily): significantly decreased the immobility time; Time in centre (%) ([7]; 10-day treatment, 0.3 mg/kg): 28.8 ±4.5%; Time in open arms (%) ([7]; 10-day treatment, 0.3 mg/kg): 11.8 ±3.7%; effects in the elevated plus maze, chronic low dose ([7]; 10-day, 0.3 mg/kg ip daily): No significant effects; Open arm entries (%) ([7]; acute ip, 1 mg/kg): 15.9 ±5.1%; Time in centre (%) ([7]; acute ip, 1 mg/kg): 36.4 ±7.7%; Total arm entries ([7]; acute ip, 1 mg/kg): 17.4 ±2.5; locomotor activity ([8]; 10-day treatment, 0.3 mg/kg, 5-min session): 598.3 ±14.7 counts; effects in the locomotor activity test, chronic low dose ([8]; 10-day, 0.3 mg/kg ip daily): No significant effects; locomotion ([8]; acute 3 mg/kg ip): not altered; body mass variations versus control mice [9]: No significant differences
CN1[C@@H]2C[C@@H](OC(=O)[C@H](CO)c3ccccc3)C[C@H]1[C@@H]1O[C@@H]12 [Scopolamine, reference compound]															latency time to descend from the bar [11]: significantly decreased the latency time
C#CCN1CCC(/C=C\c2ccc(F)cc2)CC1 [Compound 6, (Z)-4-(4-Fluorostyryl)-1-(prop-2-yn-1-yl)piperidine]	at least 17.6 g/250 mL	2400 ± 600 nM	88%		significantly reduced	10.8 ±2.6%	43.5 ±2.8%	9.1 ±1.9%	22.0 ±1.5					no significant cytotoxic effects	increase in the proportion of open-arm entries ([7]; 10 mg/kg ip, vs 0.9% saline): 2.0 fold; Open arm entries (%) ([7]; acute ip, 10 mg/kg): 27.5 ±3.2%; Time in open arms (%) ([7]; acute ip, 10 mg/kg): 8.4 ±2.7%; spontaneous locomotor activity ([8]; acute 10 mg/kg ip): significantly decreased
NCCc1ccc(O)cc1 [p-Tyramine, reference compound]															K0.5 ([3]; substrate of MAO A/B, control mouse brain homogenates): 0.071 ± 0.032 mM

Further lines, with some results ahead:

thermodynamic solubility [1]	Ki [5]	inhibition at 300 µM [5]	SMILES	chemical stability on storage [2]	immobility time, acute treatment [6]	Open arm entries (%) ([7]; acute ip, 3 mg/kg)	Time in centre (%) ([7]; acute ip, 3 mg/kg)	Time in open arms (%) ([7]; acute ip, 3 mg/kg)	Total arm entries ([7]; acute ip, 3 mg/kg)	Open arm entries (%) ([7]; acute ip, 6 mg/kg)	Time in centre (%) ([7]; acute ip, 6 mg/kg)	Time in open arms (%) ([7]; acute ip, 6 mg/kg)	Total arm entries ([7]; acute ip, 6 mg/kg)	cytotoxic effects [10]	further results
≥ 10.5 g/250 mL	700 ± 100 nM	96%	C#CCN1CCC(/C=C\c2ccccc2)CC1 [Compound 67, (Z)-1-(Prop-2-yn-1-yl)-4-styrylpiperidine]		did not decrease the immobility time	15.0 ±2.3%	39.8 ±1.7%	11.9 ±2.3%	20.6 ±2.4	15.6 ±3.4%	53.1 ±5.7%	5.4 ±1.0%	15.4 ±0.8	no significant cytotoxic effects	
		48%	C#CCN1CCC(/C=C/c2ccc(C(F)(F)F)cc2)CC1 [Compound 84, (E)-1-(Prop-2-yn-1-yl)-4-(4-(trifluoromethyl)styryl)piperidine]	only smaller amounts of impurities were detected; also recorded: partial degradation										no significant cytotoxic effects	IC50(MAO-A) class [12]: na (na-not_active(RA_at_100micromolar>50%))

From PMC7307930, “Stereoselective Activity of 1-Propargyl-4-styrylpiperidine-like Analogues That Can Discriminate between Monoamine Oxidase Isoforms A and B” (Journal of Medicinal Chemistry, 2020)
